Test results taken from BindingDB's records for doi:10.1016/j.jmb.2005.09.095 (Georgia State University, 2005).
Starred links: 1 amine or outer side, 2 acyl side, 3 side chain; linkers in the order of their positions; H or OH if unused. Non-standard residues stand in square brackets, D forms with d. Residues, ends and D or L forms follow the SMILES beside them. Groups on a side chain read outwards from the residue. N(2S-amino-4-Me-pentyl)Phe = CC(C)C[C@@H](CN([C@@H](Cc1ccccc1)C(=O)[*:2])[*:1])N[*:3]; Nle = CCCC[C@H](N)C(=O)O

Columns and labels:
Test in all cases: Protease Inhibition Assay
Settings in all cases: pH 5; 22 °C
[1] = biological target: T1, Dimer of Gag-Pol polyprotein [501-599,Q508K,L534I,L564I,C568A,C596A,I551V] (Human immunodeficiency virus 1, UniProt P03367, C568A/C596A/I551V/L534I/L564I/Q508K)
T1 construct: 501-599
Source text: (§1) The Ki values were obtained from the IC50 values estimated from an inhibitor dose-response curve with the spectroscopic assay and the chromogenic substrate.

[2] = biological target: T2, Dimer of Gag-Pol polyprotein [501-599,Q508K,L534I,L564I,C568A,C596A] (Human immunodeficiency virus 1, UniProt P03367, C568A/C596A/L534I/L564I/Q508K)
T2 construct: 501-599
Source text: as §1

[3] = biological target: T3, Dimer of Gag-Pol polyprotein [501-599,Q508K,L534I,L564I,C568A,C596A,L525I] (Human immunodeficiency virus 1, UniProt P03367, C568A/C596A/L525I/L534I/L564I/Q508K)
T3 construct: 501-599
Source text: as §1

[4] = biological target: T4, Dimer of Gag-Pol polyprotein [501-599,Q508K,L534I,L564I,C568A,C596A,G574S] (Human immunodeficiency virus 1, UniProt P03367, C568A/C596A/G574S/L534I/L564I/Q508K)
T4 construct: 501-599
Source text: as §1

## CCCC[C@H](NC(=O)[C@H](C)NC(=O)[C@H](CCC(=O)O)NC(=O)[C@H](Cc1ccccc1)NC[C@H](CC(C)C)NC(=O)[C@@H](NC(=O)[C@@H](N)CCCNC(=N)N)C(C)C)C(N)=O [N-1270] (H-[N(2S-amino-4-Me-pentyl)Phe]([Val-Arg])EA[Nle]-NH2)
[1]
  Ki: 230 nM
[2]
  Ki: 75 nM
[3]
  Ki: 3.5 nM
[4]
  Ki: 330 nM
